Where “and” joins values, the source holds several entries; their conditions need not be identical. Equal entries are not always repeated. Where two headings read alike, the source gives them in different places.
Assays:
mGluR1 = target: T1, mGluR1 (Rattus norvegicus, UniProt P23385); test: mGluR1 binding (agonist radioligand); conditions: read-out: % Inhibition of control specific binding, mGluR1
T1 construct: purchased Cerep (Eurofins), Poitiers, France; Promega P450-Glo; in-house COS-7 uptake assays
T1 sequence (P23385 19-1199): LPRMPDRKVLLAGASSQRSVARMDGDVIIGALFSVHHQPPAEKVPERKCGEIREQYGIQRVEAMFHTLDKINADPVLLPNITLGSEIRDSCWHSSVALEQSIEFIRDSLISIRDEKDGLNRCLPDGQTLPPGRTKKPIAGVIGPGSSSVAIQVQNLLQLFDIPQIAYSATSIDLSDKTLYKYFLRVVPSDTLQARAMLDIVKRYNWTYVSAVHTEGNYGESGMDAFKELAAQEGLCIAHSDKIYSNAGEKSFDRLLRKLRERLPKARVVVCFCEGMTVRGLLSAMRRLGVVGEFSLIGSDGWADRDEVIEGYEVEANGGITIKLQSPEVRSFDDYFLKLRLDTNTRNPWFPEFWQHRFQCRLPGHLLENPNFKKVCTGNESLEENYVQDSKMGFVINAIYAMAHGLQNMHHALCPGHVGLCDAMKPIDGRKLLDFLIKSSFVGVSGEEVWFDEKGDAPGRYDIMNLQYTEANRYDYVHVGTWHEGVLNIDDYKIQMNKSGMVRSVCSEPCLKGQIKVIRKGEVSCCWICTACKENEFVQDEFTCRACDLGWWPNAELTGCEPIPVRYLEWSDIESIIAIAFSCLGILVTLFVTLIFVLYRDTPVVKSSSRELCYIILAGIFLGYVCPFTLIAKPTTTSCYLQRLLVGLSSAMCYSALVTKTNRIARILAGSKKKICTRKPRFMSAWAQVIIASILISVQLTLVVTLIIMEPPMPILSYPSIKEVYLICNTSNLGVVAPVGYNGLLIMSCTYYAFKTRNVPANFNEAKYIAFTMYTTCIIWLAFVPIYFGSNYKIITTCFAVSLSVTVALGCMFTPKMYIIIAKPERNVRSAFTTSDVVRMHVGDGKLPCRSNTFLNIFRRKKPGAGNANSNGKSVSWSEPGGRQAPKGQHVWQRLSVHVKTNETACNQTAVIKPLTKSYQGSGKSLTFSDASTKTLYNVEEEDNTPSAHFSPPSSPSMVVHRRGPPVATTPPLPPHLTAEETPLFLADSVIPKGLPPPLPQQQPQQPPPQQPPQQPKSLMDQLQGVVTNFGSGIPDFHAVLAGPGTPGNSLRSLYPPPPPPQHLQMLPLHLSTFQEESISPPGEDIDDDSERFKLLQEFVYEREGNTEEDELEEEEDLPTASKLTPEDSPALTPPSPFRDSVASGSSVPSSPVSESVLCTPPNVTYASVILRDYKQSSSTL

recombinant human CYP3A4 = target: T2, recombinant human CYP3A4 (Homo sapiens, UniProt P08684); test: CYP3A4 P450-Glo assay; type: in vitro ADME
T2 construct: purchased Cerep (Eurofins), Poitiers, France; Promega P450-Glo; in-house COS-7 uptake assays
Source text: (§1) The luminescent CYP3A4 P450-Glo and CYP2D6 P450-Glo assays and protocols were provided by Promega (Madison, WI).[98] The procedures were provided by the manufacturer and were similar as previously reported for the racemate I.[29]

mGluR5 (h) = target: T3, mGluR5 (h) (Homo sapiens, UniProt P41594); test: mGluR5 (h) binding (agonist radioligand); conditions: human recombinant, read-out: % Inhibition of control specific binding, mGluR5 (h)
T3 construct: purchased Cerep (Eurofins), Poitiers, France; Promega P450-Glo; in-house COS-7 uptake assays
Source text: (§2) The general information is listed in the Supporting Information.

EAAT3 = EAAT3 (Homo sapiens, UniProt P43005); conditions: transfected COS-7 cells
[1] = target: T4, Norepinephrine transporter (h) (Homo sapiens, UniProt P23975); test: Norepinephrine transporter (h) (antagonist radioligand); type: binding; conditions: read-out: % Inhibition, Norepinephrine transporter (h)
T4 construct: purchased Cerep (Eurofins), Poitiers, France; Promega P450-Glo; in-house COS-7 uptake assays
Source text: as §2

recombinant human CYP2C9 = target: T5, recombinant human CYP2C9 (Homo sapiens, UniProt P11712); test: CYP2C9 activity assay; type: in vitro ADME; conditions: comparable to the racemate
T5 construct: purchased Cerep (Eurofins), Poitiers, France; Promega P450-Glo; in-house COS-7 uptake assays

5-HT7 (h) = target: T6, 5-HT7 (h) (Homo sapiens, UniProt P34969); test: 5-HT7 (h) functional assay; type: cell-based
T6 construct: purchased Cerep (Eurofins), Poitiers, France; Promega P450-Glo; in-house COS-7 uptake assays
T6 sequence (P34969 whole entry): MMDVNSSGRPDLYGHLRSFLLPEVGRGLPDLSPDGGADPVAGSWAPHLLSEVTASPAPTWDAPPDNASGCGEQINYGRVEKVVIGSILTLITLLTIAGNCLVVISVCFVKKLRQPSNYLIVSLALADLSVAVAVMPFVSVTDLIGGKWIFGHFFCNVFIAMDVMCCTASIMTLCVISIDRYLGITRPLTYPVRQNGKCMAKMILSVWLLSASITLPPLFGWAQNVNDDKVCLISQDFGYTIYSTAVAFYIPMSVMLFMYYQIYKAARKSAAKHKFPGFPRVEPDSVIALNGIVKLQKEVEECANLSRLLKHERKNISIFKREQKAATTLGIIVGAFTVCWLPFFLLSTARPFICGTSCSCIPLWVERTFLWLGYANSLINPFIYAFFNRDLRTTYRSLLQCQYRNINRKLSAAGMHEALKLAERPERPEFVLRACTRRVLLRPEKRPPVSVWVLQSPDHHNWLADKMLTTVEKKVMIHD
Source text: as §2

Acetylcholinesterase (h) = target: T7, Acetylcholinesterase (h) (Homo sapiens, UniProt P22303); test: Acetylcholinesterase (h) enzymatic activity; type: biochemical; conditions: read-out: % Inhibition, Acetylcholinesterase (h) enzymatic activity
T7 construct: purchased Cerep (Eurofins), Poitiers, France; Promega P450-Glo; in-house COS-7 uptake assays
Source text: as §2

CB1 (h) = target: T8, CB1 (h) (Homo sapiens, UniProt P21554); test: CB1 (h) functional assay; type: cell-based
T8 construct: purchased Cerep (Eurofins), Poitiers, France; Promega P450-Glo; in-house COS-7 uptake assays
T8 sequence (P21554 whole entry): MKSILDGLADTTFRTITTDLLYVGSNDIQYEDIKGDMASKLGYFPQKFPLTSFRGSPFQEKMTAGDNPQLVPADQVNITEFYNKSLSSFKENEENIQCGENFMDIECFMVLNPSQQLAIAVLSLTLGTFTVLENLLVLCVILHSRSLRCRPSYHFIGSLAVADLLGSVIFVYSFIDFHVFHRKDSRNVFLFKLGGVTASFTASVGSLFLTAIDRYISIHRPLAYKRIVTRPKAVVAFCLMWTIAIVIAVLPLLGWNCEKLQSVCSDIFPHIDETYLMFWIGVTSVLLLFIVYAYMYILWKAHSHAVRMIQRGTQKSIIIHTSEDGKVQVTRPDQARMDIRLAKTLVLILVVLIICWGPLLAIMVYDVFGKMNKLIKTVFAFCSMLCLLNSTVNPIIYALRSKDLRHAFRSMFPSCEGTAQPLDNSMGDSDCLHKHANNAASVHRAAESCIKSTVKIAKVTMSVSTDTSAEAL
Source text: as §2

mGlu2 (h) = target: T9, mGlu2 (h) (Homo sapiens, UniProt Q14416); test: mGlu2 (h) binding (antagonist radioligand); conditions: human recombinant (Chem-1 cells), read-out: % Inhibition of control specific binding, mGlu2 (h)
T9 construct: purchased Cerep (Eurofins), Poitiers, France; Promega P450-Glo; in-house COS-7 uptake assays
Source text: as §2

hERG potassium channel = hERG potassium channel (Homo sapiens, UniProt Q12809); test: in vitro
sst2 (h) = target: T10, sst2 (h) (Homo sapiens, UniProt P30874); test: sst2 (h) functional assay; type: cell-based
T10 construct: purchased Cerep (Eurofins), Poitiers, France; Promega P450-Glo; in-house COS-7 uptake assays
T10 sequence (P30874 whole entry): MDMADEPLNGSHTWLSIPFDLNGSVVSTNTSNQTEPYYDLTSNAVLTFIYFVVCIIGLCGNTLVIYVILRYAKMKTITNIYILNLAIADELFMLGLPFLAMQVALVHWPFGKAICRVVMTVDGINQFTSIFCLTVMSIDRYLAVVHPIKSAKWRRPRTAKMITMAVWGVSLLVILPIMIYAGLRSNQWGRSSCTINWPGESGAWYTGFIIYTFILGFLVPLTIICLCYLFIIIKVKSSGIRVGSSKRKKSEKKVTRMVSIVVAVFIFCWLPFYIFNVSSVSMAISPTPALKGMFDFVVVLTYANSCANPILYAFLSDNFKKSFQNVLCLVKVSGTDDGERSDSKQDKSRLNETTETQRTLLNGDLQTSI
Source text: as §2

GlyRA1 = target: T11, GlyRA1 (Homo sapiens, UniProt P23415); type: cell-based
T11 construct: purchased Cerep (Eurofins), Poitiers, France; Promega P450-Glo; in-house COS-7 uptake assays
T11 sequence (P23415 29-457): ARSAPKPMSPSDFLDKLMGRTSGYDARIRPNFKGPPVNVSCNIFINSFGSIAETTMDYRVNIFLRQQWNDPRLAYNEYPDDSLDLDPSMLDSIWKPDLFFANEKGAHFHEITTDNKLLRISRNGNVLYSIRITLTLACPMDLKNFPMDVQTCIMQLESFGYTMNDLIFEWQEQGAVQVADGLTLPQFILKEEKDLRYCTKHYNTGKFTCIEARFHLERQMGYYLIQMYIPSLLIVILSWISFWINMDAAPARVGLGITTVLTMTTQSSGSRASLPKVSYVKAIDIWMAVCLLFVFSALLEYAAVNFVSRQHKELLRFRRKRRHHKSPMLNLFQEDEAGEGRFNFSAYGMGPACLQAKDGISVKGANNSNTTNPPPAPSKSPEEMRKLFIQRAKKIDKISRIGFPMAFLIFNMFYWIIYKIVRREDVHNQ

EAAT1 = EAAT1 (Homo sapiens, UniProt P43003); conditions: transfected COS-7 cells
Alpha 1A (h) = target: T12, Alpha 1A (h) (Homo sapiens, UniProt P35348); test: Alpha 1A (h) functional assay; type: cell-based
T12 construct: purchased Cerep (Eurofins), Poitiers, France; Promega P450-Glo; in-house COS-7 uptake assays
T12 sequence (P35348 whole entry): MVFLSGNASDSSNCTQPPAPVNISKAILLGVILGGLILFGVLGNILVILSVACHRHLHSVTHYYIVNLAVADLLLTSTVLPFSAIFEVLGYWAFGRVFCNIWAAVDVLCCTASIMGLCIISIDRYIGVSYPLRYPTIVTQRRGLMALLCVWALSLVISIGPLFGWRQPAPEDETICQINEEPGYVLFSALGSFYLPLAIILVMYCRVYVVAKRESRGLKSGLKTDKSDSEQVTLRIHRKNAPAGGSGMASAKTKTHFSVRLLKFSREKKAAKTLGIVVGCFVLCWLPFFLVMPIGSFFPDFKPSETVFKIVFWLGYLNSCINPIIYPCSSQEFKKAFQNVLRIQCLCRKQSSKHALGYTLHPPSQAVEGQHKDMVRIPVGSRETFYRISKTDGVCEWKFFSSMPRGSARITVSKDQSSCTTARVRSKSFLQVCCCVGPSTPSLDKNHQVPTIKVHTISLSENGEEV
Source text: as §2

D2L (h) = target: T13, D2L (h) (Homo sapiens, UniProt P14416); test: D2L (h) functional assay; type: cell-based
T13 construct: purchased Cerep (Eurofins), Poitiers, France; Promega P450-Glo; in-house COS-7 uptake assays
T13 sequence (P14416 whole entry): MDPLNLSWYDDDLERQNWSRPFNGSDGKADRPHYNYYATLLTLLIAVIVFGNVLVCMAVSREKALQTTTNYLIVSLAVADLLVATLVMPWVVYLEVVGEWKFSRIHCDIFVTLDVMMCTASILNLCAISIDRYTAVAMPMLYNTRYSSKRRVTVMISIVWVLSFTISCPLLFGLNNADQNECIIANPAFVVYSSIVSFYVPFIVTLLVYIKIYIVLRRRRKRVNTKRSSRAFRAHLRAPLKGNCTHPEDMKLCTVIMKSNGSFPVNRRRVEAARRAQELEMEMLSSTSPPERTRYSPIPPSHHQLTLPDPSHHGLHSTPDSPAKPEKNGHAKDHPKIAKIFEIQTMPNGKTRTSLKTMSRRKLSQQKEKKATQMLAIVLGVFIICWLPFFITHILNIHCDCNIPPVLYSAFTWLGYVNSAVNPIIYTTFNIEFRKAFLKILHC
Source text: as §2

D1 (h) = target: T14, D1 (h) (Homo sapiens, UniProt P21728); test: D1 (h) functional assay; type: cell-based
T14 construct: purchased Cerep (Eurofins), Poitiers, France; Promega P450-Glo; in-house COS-7 uptake assays
T14 sequence (P21728 whole entry): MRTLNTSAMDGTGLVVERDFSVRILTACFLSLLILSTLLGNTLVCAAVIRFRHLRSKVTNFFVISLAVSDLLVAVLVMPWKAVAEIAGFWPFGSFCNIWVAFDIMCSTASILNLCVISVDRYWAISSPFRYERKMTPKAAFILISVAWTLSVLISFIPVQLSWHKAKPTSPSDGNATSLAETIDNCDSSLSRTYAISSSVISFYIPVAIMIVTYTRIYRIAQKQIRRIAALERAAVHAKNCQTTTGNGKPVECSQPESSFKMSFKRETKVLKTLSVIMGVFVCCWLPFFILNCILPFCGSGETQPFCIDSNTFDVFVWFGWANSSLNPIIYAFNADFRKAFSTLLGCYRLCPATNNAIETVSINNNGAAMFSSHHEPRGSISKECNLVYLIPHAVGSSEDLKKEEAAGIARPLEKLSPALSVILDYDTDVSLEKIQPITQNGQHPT
Source text: as §2

hCav3.2 = hCav3.2 (Homo sapiens, UniProt O95180); test: cell-based
recombinant human CYP2D6 = target: T15, recombinant human CYP2D6 (Homo sapiens, UniProt P10635); test: CYP2D6 P450-Glo assay; type: in vitro ADME; conditions: only at the highest concentration of 25 μM
T15 construct: purchased Cerep (Eurofins), Poitiers, France; Promega P450-Glo; in-house COS-7 uptake assays
Source text: as §1

Glutamate, NMDA, Glycine = Glutamate, NMDA, Glycine (Rattus norvegicus, UniProt P35439); test: Glutamate NMDA glycine [3H]MDL 105,519 binding; conditions: read-out: % Inhibition of control specific binding, Glutamate, NMDA, Glycine [3H] MDL 105,519
Chain of Glutamate, NMDA, Glycine (P35439 394-800 limits assumed): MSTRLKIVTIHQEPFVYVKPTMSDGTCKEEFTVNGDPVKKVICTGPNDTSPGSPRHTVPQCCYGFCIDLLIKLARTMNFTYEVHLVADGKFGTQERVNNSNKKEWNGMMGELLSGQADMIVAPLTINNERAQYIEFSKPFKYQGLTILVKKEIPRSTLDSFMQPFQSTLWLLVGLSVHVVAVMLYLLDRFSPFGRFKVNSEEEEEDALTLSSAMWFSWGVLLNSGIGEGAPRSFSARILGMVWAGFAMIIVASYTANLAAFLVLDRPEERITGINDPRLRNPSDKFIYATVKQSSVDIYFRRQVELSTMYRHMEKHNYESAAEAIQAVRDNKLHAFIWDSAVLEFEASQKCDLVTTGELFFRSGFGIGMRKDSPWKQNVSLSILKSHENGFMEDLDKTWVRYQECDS
Source text: as §2

[2] = target: T16, GLYT1 Glycine Transporter (Homo sapiens, UniProt P48067); test: GLYT1 glycine transporter binding; conditions: rat brain, listed as (R)-7 [(R)-AS-1]
T16 construct: purchased Cerep (Eurofins), Poitiers, France; Promega P450-Glo; in-house COS-7 uptake assays
T16 sequence (P48067 whole entry): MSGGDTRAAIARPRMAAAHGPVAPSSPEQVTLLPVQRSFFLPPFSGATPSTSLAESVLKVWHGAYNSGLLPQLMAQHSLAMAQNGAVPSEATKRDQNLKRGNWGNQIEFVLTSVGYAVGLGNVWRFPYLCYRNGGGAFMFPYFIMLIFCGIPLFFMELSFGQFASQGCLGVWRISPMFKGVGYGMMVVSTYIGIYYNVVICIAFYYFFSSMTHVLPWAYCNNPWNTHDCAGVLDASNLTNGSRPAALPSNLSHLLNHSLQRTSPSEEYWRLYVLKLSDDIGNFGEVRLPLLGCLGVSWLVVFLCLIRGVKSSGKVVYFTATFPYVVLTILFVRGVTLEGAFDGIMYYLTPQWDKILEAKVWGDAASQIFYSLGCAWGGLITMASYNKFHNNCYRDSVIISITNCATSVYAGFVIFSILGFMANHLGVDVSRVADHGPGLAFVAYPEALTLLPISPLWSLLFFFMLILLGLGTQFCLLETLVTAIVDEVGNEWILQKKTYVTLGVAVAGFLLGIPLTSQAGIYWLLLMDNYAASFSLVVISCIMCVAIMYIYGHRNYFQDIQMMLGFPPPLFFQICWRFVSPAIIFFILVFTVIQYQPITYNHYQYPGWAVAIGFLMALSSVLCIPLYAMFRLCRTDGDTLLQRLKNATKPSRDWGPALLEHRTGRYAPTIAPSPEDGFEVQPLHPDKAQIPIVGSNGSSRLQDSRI
Source text: as §2

[3] = 100 mg/kg i.p., mice
[4] = 10 μM, listed as (R)-7 [(R)-AS-1]
[5] = 100 μM, listed as (R)-7 [(R)-AS-1]

Structure (SMILES): C[C@H](C(=O)NCc1ccccc1)N1C(=O)CCC1=O [(R)-7, (R)-N-Benzyl-2-(2,5-dioxopyrrolidin-1-yl)propanamide]
- inhibition at 10 µM (mGluR1; 10 μM, rat brain): -6.72%
- inhibition at 100 µM (mGluR1): -6.72%
- CYP3A4 activity (recombinant human CYP3A4; 10 μM, ± SD): 100.4 ± 4.2 % of control
- effect on CYP3A4 (recombinant human CYP3A4; only at the highest concentration of 25 μM): slight inhibition
- inhibition at 10 µM (mGluR5 (h)): -7.78%
- effect on EAAT3-mediated glutamate uptake (EAAT3): no effects
- inhibition at 100 µM [1]: 3.01%
- effect in the CYP2C9 assay (recombinant human CYP2C9): moderate inhibitory effect
- % Effect, 5-HT7 (h) (Agonist effect) (5-HT7 (h); [4]): -4.26% and -4.26 (10 µM) %
- inhibition at 10 µM (5-HT7 (h); read-out: % Inhibition, 5-HT7 (h) (Antagonist effect)): -25%
- inhibition at 10 µM (Acetylcholinesterase (h)): 1.59%
- % Effect, CB1 (h) (Agonist effect) (CB1 (h); 10 µM (as printed in the xlsx)): -6.83 (10 µM) %
- % Effect, CB1 (h) (Agonist effect) (CB1 (h); 100 μM): -6.83%
- inhibition at 100 µM (CB1 (h); read-out: % Inhibition, CB1 (h) (Antagonist effect)): 5.59%
- inhibition at 50 µM (mGlu2 (h)): -8%
- inhibition at 100 µM (hERG potassium channel): -8.02%
- % Effect, sst2 (h) (Agonist effect) (sst2 (h); [4]): 0.50% and 0.50 (10 µM) %
- inhibition at 50 µM (sst2 (h); 50 μM, read-out: % Inhibition, sst2 (h) (Antagonist effect)): 5.25%
- GlyRA1 agonist, % Control, Mean (GlyRA1): 1.94% and 1.94 (100 µM) %
- GlyRA1 agonist, % Control, n1 (GlyRA1): 1.83%
- GlyRA1 agonist, % Control, n2 (GlyRA1): 2.05%
- effect on EAAT1-mediated glutamate uptake (EAAT1): no effects
- % Effect, Alpha 1A (h) (Agonist effect) (Alpha 1A (h); [5]): -2.05% and 2.05 (100 µM) %
- inhibition at 100 µM (Alpha 1A (h); read-out: % Inhibition, Alpha 1A (h) (Antagonist effect)): 1.28%
- % Effect, D2L (h) (Agonist effect) (D2L (h); [5]): 0.22% and 0.22 (100 µM) %
- inhibition at 100 µM (D2L (h); read-out: % Inhibition, D2L (h) (Antagonist effect)): 3.27%
- % Effect, D1 (h) (Agonist effect) (D1 (h); [5]): 1.70% and 1.70 (100 µM) %
- inhibition at 100 µM (D1 (h); read-out: % Inhibition, D1 (h) (Antagonist effect)): -2.57%
- inhibition at 100 µM (hCav3.2; read-out: hCav3.2 % Inhibition, Mean): -0.79%
- inhibition at 100 µM (hCav3.2; read-out: hCav3.2 % Inhibition, n1): 5.25%
- inhibition at 100 µM (hCav3.2; read-out: hCav3.2 % Inhibition, n2): -6.84%
- effect on CYP2D6 (recombinant human CYP2D6): slight activation
- inhibition at 10 µM (Glutamate, NMDA, Glycine): -3%
- % Inhibition of control specific binding, GLYT1 Glycine Transporter ([2]; 10 μM): -2.00% and -1.00%
- % Inhibition of control specific binding, GLYT1 Glycine Transporter ([2]; 100 μM): -1.00% and -2.00%
- AUC0–∞, brain ([3]; listed as (R)-7 [(R)-AS-1]): 2813.0 μg·min/mL(g) and 2813.04 μg·min/mL(g)
- AUC0–∞, serum ([3]; listed as (R)-7 [(R)-AS-1]): 4625.8 μg·min/mL(g) and 4625.78 μg·min/mL(g)
- Cmax, serum ([3]; listed as (R)-7 [(R)-AS-1]): 82.7 μg/mL(g) and 82.73 μg/mL(g)
- total clearance ([3]; noncompartmental approach): approx. 0.6 mL/min
